Patent US20250019350A1, “SYNTHESIS OF THE PROSTATE SPECIFIC MEMBRANE ANTIGEN (PSMA) RADIOLABELED INHIBITOR [18F]DCFPYL” (Progenics Pharmaceuticals, Inc, priority 2023, published 2025)
“And” between values parts separate entries of the source, which are not always exact repeats. Equal entries are not always repeated.

Experiment: Radiolysis / stability of [18F]DCFPyL over time by HPLC with radiodetection (RCP, free 18F, radioactive impurities)
Format: physicochemical
Description: Those of ordinary skill in the art will be aware of techniques and systems for determining the radiochemical purity of a composition. In some cases, the radiochemical purity is determined using an HPLC associated with a radio-detector. Generally, the radiochemical purity is determined under ambient conditions (e.g., ambient temperature, ambient humidity, ambient light, etc.), such as in samples stored under such conditions.
Stability was assessed using reverse phase HPLC on a C18 column with a phosphate buffer/acetonitrile gradient mobile phase, and the elution profile was monitored using both UV and radiochemical detectors. Samples were analyzed either by direct injection onto the HPLC, dilution and injection or including the addition of tetraethylammonium fluoride (TEAF) into the sample before injection.
Known amounts of free ^18F either alone or spiked with TEAF were injected onto the analytic column and the eluent from the column collected over the course of a chromatogram and assaying the radioactivity using a Capintec. […] Adding TEAF into the analytic samples was incorporated into subsequent studies examining potential radiolysis of [^18F]DCFPyL to overcome some of the limitations of free ^18F quantification.
Analytical HPLC method was used. The method employs UV detection at 264 nm for chemical impurities, and an Eckert & Ziegler model B-FC-1000 gamma detector for radiochemical assays.

[1] = T = 2.5 hr, 100 mg/mL ascorbic acid pH 2.0, 256 mCi/mL at EOS
[2] = T = 2.5 hr, 20% ethanol in saline, 52 mCi/mL at EOS
[3] = T = 2.5 hr, 20% ethanol in saline, 65 mCi/mL at EOS
[4] = T = 2.5 hr, 20% ethanol in saline, 85 mCi/mL at EOS
[5] = T = 2.5 hr, control without ascorbic acid, 36% ethanol in saline, 147 mCi/mL at EOS
[6] = T = 3.0 hr, 50 mg/mL ascorbic acid pH 5.8 in final product vial, 20% ethanol, 110 mCi/mL at EOS
[7] = T = 3.0 hr, 100 mg/mL ascorbic acid pH 2.0, 256 mCi/mL at EOS
[8] = T = 3 hr, 20% ethanol in saline, 52 mCi/mL at EOS
[9] = T = 3 hr, 20% ethanol in saline, 65 mCi/mL at EOS
[10] = T = 3 hr, 20% ethanol in saline, 85 mCi/mL at EOS
[11] = T = 3 hr, 100% ethanol, 325 mCi/mL at EOS
[12] = T = 3 hr, control without ascorbic acid, 36% ethanol in saline, 147 mCi/mL at EOS
[13] = T = 3.5 hr, 50 mg/mL ascorbic acid pH 5.8 in final product vial, 20% ethanol, 110 mCi/mL at EOS
[14] = T = 3.5 hr, 100 mg/mL ascorbic acid pH 2.0, 256 mCi/mL at EOS
[15] = T = 3.5 hr, 20% ethanol in saline, 52 mCi/mL at EOS
[16] = T = 3.5 hr, 20% ethanol in saline, 65 mCi/mL at EOS
[17] = T = 3.5 hr, 20% ethanol in saline, 85 mCi/mL at EOS
[18] = T = 3.5 hr, control without ascorbic acid, 36% ethanol in saline, 147 mCi/mL at EOS
[19] = T = 4 hr, 0.5 mg/mL ascorbic acid pH 5.8, 20% ethanol, 105.8 mCi/mL at EOS
[20] = T = 4 hr, 1 mg/mL ascorbic acid pH 5.8, 20% ethanol, 107.0 mCi/mL at EOS
[21] = T = 4 hr, 5 mg/mL ascorbic acid pH 5.8, 20% ethanol, 99.0 mCi/mL at EOS
[22] = T = 4 hr, 20 mg/mL sodium citrate, 20% ethanol, 104.8 mCi/mL at EOS
[23] = T = 4 hr, 50 mg/mL ascorbic acid pH 5.8, 20% ethanol, 139.7 mCi/mL at EOS
[24] = T = 4.0 hr, 50 mg/mL ascorbic acid pH 5.8 in final product vial, 20% ethanol, 110 mCi/mL at EOS
[25] = T = 4.0 hr, 100 mg/mL ascorbic acid pH 2.0, 256 mCi/mL at EOS
[26] = T = 4 hr, 20% ethanol in saline, 52 mCi/mL at EOS
[27] = T = 4 hr, 20% ethanol in saline, 65 mCi/mL at EOS
[28] = T = 4 hr, 20% ethanol in saline, 85 mCi/mL at EOS
[29] = T = 4 hr, 100% ethanol, 325 mCi/mL at EOS
[30] = T = 4 hr, control without ascorbic acid, 36% ethanol in saline, 147 mCi/mL at EOS
[31] = T = 5 hr, 100% ethanol, 325 mCi/mL at EOS

## O=C(O)CC[C@H](NC(=O)N[C@@H](CCCCNC(=O)c1ccc([18F])nc1)C(=O)O)C(=O)O [Lot 18F-DCFPyL, 2-(3-{1-carboxy-5-[(6-[18F]fluoro-pyridine-3-carbonyl)-amino]-pentyl}ureido)-pentanedioic acid]
[1]
  18F-DCFPyL (RCP): 98.71%
  Free 18F: 0.31%
  RT 12.0 radioactive impurity: 0.52%
  RT 12.2 radioactive impurity: 0.46%
[2]
  18F-DCFPyL (RCP): 98.61%
  Free F-18: 0.86%
  RT 5.0 radioactive impurity: 0.53%
[3]
  18F-DCFPyL (RCP): 95.36%
  Free F-18: 3.97%
  RT 5.0 radioactive impurity: 0.41%
  RT 5.9 radioactive impurity: 0.26%
[4]
  18F-DCFPyL (RCP): 95.06%
  Free F-18: 4.29%
  RT 5.0 radioactive impurity: 0.31%
  RT 5.9 radioactive impurity: 0.35%
[5]
  18F-DCFPyL (RCP): 88.79%
  Free F-18: 9.66%
  RT 5.0 radioactive impurity: 0.62%
  RT 5.9 radioactive impurity: 0.93%
[6]
  18F-DCFPyL (RCP): 99.25%
  Free 18F: 0.35%
  RT 5.0 radioactive impurity: 0.39%
  RT 5.9 radioactive impurity: 0.27%
[7]
  18F-DCFPyL (RCP): 98.46%
  Free 18F: 0.29%
  RT 12.0 radioactive impurity: 0.69%
  RT 12.2 radioactive impurity: 0.57%
[8]
  18F-DCFPyL (RCP): 98.53%
  Free F-18: 0.99%
  RT 5.0 radioactive impurity: 0.48%
[9]
  18F-DCFPyL (RCP): 95.64%
  Free F-18: 4.03%
  RT 5.0 radioactive impurity: 0.34%
[10]
  18F-DCFPyL (RCP): 95.10%
  Free F-18: 4.26%
  RT 5.0 radioactive impurity: 0.37%
  RT 5.9 radioactive impurity: 0.27%
[11]
  18F-DCFPyL (RCP): 95.71%
  Free F-18: 4.29%
[12]
  18F-DCFPyL (RCP): 88.94%
  Free F-18: 9.49%
  RT 5.0 radioactive impurity: 0.70%
  RT 5.9 radioactive impurity: 0.87%
[13]
  18F-DCFPyL (RCP): 99.46%
  Free 18F: 0.24%
  RT 5.0 radioactive impurity: 0.31%
[14]
  18F-DCFPyL (RCP): 98.03%
  Free 18F: 0.35%
  RT 12.0 radioactive impurity: 0.88%
  RT 12.2 radioactive impurity: 0.75%
[15]
  18F-DCFPyL (RCP): 98.55%
  Free F-18: 0.94%
  RT 5.0 radioactive impurity: 0.52%
[16]
  18F-DCFPyL (RCP): 95.44%
  Free F-18: 4.17%
  RT 5.0 radioactive impurity: 0.39%
[17]
  18F-DCFPyL (RCP): 95.14%
  Free F-18: 4.51%
  RT 5.0 radioactive impurity: 0.35%
[18]
  18F-DCFPyL (RCP): 88.90%
  Free F-18: 9.56%
  RT 5.0 radioactive impurity: 0.59%
  RT 5.9 radioactive impurity: 0.95%
[19]
  18F-DCFPyL (% RCP): 98.64%
  Free F-18: 1.36%
[20]
  18F-DCFPyL (% RCP): 98.56%
  Free F-18: 1.44%
T = 4 hr, 1 mg/mL sodium ascorbate, 20% ethanol, 111.5 mCi/mL at EOS
  Free F-18: 2.61%
[21]
  18F-DCFPyL (% RCP): 99.23%
  Free F-18: 0.77%
T = 4 hr, 5 mg/mL sodium ascorbate, 20% ethanol, 114.6 mCi/mL at EOS
  Free F-18: 1.23%
[22]
  Free F-18: 20.65%
  RT 3.4 radioactive impurity: 0.32%
  RT 3.7 radioactive impurity: 0.35%
[23]
  18F-DCFPyL (% RCP): 99.69%
  Free F-18: 0.31%
T = 4 hr, 50 mg/mL ascorbic acid pH 5.8, 20% ethanol, 139.7 mCi/mL at EOS, MPA = 0.25% of main peak
  RT 4.8 radioactive impurity: <MPA
[24]
  18F-DCFPyL (RCP): above 99%
  Free 18F: 0.26%
  RT 5.0 radioactive impurity: 0.37%
[25]
  18F-DCFPyL (RCP): 98.0% and 97.98%
  Free 18F: 0.37%
  RT 12.0 radioactive impurity: 0.96%
  RT 12.2 radioactive impurity: 0.69%
T = 4.0 hr, 100 mg/mL ascorbic acid pH 2.0, 256 mCi/mL at EOS, listed as [^18F]DCFPYL
  18F-DCFPyL (RCP): 98.0%
[26]
  18F-DCFPyL (RCP): 98.53%
  Free F-18: 0.98%
  RT 5.0 radioactive impurity: 0.49%
[27]
  18F-DCFPyL (RCP): 95.50%
  Free F-18: 4.23%
  RT 5.0 radioactive impurity: 0.27%
[28]
  18F-DCFPyL (RCP): 94.93%
  Free F-18: 4.73%
  RT 5.0 radioactive impurity: 0.34%
[29]
  18F-DCFPyL (RCP): 95.60%
  Free F-18: 4.40%
[30]
  18F-DCFPyL (RCP): 89% and 89.06%
  Free F-18: 9.27%
  RT 5.0 radioactive impurity: 0.71%
  RT 5.9 radioactive impurity: 0.96%
T = 4 hr, control without ascorbic acid, 36% ethanol in saline, 147 mCi/mL at EOS, listed as [^18F]DCFPYL
  18F-DCFPyL (RCP): 89%
[31]
  18F-DCFPyL (RCP): 95.58%
  Free F-18: 4.42%
T = 6 hr, 0.5 mg/mL ascorbic acid pH 5.8, 20% ethanol, 105.8 mCi/mL at EOS
  Free F-18: 1.44%
T = 6 hr, 1 mg/mL ascorbic acid pH 5.8, 20% ethanol, 107.0 mCi/mL at EOS
  18F-DCFPyL (% RCP): 98.43%
